Laboratory results from patent US20250120967A1, “TYROSINE KINASES INHIBITORS AND USES THEREOF” (GREAT NOVEL THERAPEUTICS BIOTECH & MEDICALS CORPORATION, priority 2023, published 2025).

How the values were obtained:
Experiment in all cases: Tyrosine kinase inhibition assay
Format in all cases: biochemical
[1] = target: IGF1R (Homo sapiens, UniProt P08069); settings: single concentration 1.0 μM, read-out: percent inhibition
Procedure, shortened: (§1)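 Single-point screen, 1.0 μM compound, 1% DMSO final; ATP at apparent Km. Buffer: 50 mM HEPES pH 7.5, 0.01% BRIJ-35, 10 mM MgCl2, 1 mM EGTA. Z′-LYTE readout, % inhibition; hit = >80%.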

[2] = target: EPHA7 (Homo sapiens, UniProt Q15375); settings: single concentration 1.0 μM, read-out: percent inhibition
Chain of EPHA7 (Q15375 28-998): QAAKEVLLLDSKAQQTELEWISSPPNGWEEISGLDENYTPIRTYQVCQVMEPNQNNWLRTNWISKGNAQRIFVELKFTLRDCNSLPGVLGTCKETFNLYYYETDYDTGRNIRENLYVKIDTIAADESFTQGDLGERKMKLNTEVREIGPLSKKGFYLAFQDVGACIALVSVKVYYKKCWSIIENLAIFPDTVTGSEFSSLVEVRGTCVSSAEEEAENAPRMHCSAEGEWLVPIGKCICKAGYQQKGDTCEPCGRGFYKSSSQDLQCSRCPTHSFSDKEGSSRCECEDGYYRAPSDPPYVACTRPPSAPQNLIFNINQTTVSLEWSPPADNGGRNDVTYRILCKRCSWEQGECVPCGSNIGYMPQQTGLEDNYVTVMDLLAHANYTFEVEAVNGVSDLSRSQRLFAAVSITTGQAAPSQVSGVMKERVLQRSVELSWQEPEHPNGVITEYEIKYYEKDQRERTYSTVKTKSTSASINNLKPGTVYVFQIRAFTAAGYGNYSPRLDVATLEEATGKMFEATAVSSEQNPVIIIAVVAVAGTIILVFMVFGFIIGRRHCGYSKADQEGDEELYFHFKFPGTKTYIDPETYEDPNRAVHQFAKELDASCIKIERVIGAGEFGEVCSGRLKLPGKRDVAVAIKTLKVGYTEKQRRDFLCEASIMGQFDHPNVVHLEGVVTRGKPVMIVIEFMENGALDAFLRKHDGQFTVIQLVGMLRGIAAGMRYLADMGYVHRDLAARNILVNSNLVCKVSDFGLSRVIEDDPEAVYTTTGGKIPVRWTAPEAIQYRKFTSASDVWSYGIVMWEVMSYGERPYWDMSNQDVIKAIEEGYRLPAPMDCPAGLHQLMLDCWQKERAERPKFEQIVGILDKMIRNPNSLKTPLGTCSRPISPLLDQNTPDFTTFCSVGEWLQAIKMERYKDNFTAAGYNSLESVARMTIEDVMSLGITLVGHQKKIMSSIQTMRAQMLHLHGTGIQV
Procedure, shortened: as §1

[3] = target: T1, AURKA (Aurora A) (Homo sapiens, UniProt O14965); settings: single concentration 1.0 μM, read-out: percent inhibition
T1 sequence (O14965 1-403): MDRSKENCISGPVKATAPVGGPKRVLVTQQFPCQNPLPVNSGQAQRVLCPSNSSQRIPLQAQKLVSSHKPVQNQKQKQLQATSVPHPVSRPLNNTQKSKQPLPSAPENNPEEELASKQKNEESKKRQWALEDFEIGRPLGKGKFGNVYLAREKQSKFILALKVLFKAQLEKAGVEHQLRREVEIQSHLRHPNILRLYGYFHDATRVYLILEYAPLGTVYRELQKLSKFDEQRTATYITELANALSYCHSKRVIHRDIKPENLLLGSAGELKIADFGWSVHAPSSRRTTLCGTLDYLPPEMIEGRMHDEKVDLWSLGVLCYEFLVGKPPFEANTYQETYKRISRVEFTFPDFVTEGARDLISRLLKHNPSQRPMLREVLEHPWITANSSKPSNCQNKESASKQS
Procedure, shortened: as §1

[4] = target: T2, EPHA3 (Homo sapiens, UniProt P29320); settings: single concentration 1.0 μM, read-out: percent inhibition
T2 sequence (P29320 21-983): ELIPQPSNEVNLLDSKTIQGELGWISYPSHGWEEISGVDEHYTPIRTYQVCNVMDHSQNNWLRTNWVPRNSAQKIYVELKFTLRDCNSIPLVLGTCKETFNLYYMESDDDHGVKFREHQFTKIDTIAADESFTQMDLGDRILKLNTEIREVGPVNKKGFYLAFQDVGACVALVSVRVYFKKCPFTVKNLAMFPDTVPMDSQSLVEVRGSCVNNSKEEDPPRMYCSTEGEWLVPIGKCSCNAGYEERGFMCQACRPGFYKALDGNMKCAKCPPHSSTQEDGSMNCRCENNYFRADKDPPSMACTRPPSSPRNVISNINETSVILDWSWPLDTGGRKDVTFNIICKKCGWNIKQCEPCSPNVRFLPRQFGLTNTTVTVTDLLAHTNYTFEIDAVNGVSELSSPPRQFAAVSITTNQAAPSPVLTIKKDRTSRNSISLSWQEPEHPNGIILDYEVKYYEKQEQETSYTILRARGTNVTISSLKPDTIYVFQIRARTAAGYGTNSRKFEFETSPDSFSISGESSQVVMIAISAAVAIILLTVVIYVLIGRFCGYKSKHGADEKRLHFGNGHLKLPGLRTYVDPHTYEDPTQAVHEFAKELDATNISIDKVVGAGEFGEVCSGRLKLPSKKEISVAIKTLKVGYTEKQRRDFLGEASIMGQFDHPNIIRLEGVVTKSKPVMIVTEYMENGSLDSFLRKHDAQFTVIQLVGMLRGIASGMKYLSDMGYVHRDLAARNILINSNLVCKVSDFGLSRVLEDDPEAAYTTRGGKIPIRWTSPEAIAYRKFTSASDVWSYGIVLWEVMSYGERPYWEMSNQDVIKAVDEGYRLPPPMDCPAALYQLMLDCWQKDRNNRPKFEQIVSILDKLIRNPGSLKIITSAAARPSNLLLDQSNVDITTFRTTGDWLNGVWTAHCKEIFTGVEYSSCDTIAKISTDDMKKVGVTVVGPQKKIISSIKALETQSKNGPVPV
Procedure, shortened: as §1

[5] = target: JAK1 (Homo sapiens, UniProt P23458); settings: single concentration 1.0 μM, read-out: percent inhibition
Chain of JAK1 (P23458 whole entry): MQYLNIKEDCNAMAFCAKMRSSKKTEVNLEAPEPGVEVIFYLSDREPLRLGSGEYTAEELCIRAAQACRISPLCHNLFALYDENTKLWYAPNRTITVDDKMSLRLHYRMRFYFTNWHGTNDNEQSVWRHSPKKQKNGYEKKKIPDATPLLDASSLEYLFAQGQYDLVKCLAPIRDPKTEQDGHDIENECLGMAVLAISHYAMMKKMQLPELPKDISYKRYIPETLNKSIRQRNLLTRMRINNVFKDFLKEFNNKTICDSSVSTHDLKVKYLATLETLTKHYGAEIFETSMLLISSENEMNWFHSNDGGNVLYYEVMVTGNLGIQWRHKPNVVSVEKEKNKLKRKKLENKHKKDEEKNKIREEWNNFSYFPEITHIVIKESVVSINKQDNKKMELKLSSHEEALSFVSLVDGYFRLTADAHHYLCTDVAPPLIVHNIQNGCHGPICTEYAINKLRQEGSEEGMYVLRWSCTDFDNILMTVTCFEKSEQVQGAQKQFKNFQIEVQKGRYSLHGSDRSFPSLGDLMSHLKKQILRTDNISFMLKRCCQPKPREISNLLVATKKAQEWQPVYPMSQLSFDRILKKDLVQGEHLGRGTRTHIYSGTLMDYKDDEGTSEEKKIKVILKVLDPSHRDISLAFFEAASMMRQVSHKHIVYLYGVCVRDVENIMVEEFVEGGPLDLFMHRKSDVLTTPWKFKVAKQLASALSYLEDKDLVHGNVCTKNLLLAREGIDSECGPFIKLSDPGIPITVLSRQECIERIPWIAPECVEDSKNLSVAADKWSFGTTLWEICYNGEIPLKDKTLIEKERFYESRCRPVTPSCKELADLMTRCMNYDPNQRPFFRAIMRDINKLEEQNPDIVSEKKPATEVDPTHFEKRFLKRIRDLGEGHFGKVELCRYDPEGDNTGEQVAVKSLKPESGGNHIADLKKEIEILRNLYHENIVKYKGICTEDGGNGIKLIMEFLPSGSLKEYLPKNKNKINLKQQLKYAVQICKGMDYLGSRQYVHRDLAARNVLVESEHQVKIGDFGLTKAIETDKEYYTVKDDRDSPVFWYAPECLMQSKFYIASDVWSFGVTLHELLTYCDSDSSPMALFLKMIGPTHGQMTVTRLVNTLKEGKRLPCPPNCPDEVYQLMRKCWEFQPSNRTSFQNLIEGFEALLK
Procedure, shortened: as §1

[6] = target: PTK6 (Brk) (Homo sapiens, UniProt Q13882); settings: single concentration 1.0 μM, read-out: percent inhibition
Chain of PTK6 (Brk) (Q13882 whole entry): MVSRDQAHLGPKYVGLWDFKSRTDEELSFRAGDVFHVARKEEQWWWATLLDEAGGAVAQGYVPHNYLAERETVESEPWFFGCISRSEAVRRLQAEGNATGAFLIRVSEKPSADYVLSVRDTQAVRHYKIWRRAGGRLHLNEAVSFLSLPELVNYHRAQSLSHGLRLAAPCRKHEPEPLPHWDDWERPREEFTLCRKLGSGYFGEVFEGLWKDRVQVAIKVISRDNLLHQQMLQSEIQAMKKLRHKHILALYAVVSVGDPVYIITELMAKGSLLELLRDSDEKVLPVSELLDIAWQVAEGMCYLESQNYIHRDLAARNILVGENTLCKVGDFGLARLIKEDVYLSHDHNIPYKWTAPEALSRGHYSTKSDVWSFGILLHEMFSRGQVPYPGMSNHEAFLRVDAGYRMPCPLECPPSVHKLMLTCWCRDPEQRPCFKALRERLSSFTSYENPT
Procedure, shortened: as §1

[7] = target: FGFR3 (Homo sapiens, UniProt P22607); settings: single concentration 1.0 μM, read-out: percent inhibition
Chain of FGFR3 (P22607 23-806): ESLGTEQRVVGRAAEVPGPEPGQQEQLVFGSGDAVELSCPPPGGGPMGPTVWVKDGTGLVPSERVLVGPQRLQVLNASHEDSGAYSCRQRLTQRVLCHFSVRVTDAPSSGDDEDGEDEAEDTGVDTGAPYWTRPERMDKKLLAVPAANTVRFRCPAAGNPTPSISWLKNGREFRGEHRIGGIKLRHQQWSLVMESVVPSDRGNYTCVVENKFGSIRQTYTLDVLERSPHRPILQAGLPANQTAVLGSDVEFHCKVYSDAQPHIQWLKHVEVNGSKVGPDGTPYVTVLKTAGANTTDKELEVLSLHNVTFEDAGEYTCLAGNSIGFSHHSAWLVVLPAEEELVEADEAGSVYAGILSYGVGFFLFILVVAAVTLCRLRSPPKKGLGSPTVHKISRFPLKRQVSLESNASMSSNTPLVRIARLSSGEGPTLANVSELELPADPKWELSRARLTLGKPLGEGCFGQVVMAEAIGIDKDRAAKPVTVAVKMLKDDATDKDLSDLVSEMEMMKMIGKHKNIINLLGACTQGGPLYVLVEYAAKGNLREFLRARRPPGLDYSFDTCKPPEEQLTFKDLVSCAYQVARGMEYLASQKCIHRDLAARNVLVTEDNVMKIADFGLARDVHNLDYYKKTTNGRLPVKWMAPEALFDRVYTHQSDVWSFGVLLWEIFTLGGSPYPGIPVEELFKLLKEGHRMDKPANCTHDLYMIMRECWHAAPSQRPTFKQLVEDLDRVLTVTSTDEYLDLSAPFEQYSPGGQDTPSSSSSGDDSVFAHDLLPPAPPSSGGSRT
Procedure, shortened: as §1

[8] = target: AURKB (Aurora B) (Homo sapiens, UniProt Q96GD4); settings: single concentration 1.0 μM, read-out: percent inhibition
Chain of AURKB (Aurora B) (Q96GD4 whole entry): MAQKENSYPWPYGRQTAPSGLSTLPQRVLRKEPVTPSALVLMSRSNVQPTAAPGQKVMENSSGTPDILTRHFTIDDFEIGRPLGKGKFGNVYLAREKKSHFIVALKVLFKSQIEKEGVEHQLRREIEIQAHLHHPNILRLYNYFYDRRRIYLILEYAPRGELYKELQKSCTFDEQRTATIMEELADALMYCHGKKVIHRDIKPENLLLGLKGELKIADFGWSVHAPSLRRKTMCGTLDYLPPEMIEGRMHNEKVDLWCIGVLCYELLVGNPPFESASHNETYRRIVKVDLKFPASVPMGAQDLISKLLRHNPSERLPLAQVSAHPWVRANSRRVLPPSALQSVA
Procedure, shortened: as §1

[9] = tested on: FYN; settings: single concentration 1.0 μM
Procedure, shortened: as §1

Chain of IGF1R (P08069 31-1367): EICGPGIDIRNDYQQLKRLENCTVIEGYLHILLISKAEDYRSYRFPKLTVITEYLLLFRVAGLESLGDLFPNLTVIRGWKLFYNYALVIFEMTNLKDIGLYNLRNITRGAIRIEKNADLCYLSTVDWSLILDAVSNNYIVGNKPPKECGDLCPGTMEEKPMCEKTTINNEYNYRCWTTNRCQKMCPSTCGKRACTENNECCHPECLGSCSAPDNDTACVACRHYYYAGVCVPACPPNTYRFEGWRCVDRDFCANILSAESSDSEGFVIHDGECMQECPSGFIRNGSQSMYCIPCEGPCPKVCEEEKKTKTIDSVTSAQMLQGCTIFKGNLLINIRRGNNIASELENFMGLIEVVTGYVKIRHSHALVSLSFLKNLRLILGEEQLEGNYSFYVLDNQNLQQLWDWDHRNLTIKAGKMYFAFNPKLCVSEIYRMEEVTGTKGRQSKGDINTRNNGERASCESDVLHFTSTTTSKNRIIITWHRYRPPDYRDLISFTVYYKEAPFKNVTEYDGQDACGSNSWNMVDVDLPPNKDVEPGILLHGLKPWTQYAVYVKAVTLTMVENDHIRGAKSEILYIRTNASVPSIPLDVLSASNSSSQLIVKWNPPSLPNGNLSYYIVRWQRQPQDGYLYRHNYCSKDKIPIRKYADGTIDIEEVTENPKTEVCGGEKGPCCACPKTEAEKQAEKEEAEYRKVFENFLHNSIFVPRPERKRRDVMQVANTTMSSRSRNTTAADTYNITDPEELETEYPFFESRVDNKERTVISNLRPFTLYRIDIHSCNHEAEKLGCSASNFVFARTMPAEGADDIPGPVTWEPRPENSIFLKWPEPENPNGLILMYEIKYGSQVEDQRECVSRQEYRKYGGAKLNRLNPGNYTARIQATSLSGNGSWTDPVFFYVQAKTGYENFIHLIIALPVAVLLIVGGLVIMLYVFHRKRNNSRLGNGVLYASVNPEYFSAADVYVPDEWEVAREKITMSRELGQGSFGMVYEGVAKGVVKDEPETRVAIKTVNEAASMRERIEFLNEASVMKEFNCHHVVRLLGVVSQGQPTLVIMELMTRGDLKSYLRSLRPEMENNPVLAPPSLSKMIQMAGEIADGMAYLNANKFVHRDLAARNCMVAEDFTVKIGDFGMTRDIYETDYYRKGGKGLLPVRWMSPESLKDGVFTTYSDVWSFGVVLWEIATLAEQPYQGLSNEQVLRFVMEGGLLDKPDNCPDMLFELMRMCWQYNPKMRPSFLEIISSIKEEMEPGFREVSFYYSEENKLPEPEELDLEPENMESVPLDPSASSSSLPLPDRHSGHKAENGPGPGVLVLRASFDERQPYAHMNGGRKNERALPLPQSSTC

Compound	inhibition at 1 µM [1] [%]	inhibition at 1 µM [2] [%]	inhibition at 1 µM [3] [%]	inhibition at 1 µM [4] [%]	inhibition at 1 µM [5] [%]	inhibition at 1 µM [6] [%]	inhibition at 1 µM [7] [%]	inhibition at 1 µM [8] [%]	percent inhibition [9] [%]
COc1cc2nccc(Oc3ccc(NC(=O)C4(C(=O)Nc5ccc(F)cc5)CC4)cc3)c2cc1OC [Cabozantinib, reference compound]	15	106	55	100	0	103	16	84	–
COc1cc2nccc(Oc3ccc(NC(=O)C4(NC(=O)c5ccc(F)cc5)CC4)cc3F)c2cc1OC [Cbo-02, N-(1-((4-((6,7-diMethoxyquinolin-4-yl)oxy)-3-fluorophenyl)carbamoyl)cyclopropyl)-4-fluorobenzamide]	13	84	75	-3	1	73	4	99	16
COc1cc2nccc(Oc3ccc(NC(=O)C4(NC(=O)c5ccc(F)cc5)CC4)cc3F)c2cc1Oc1ccc(N)cc1F [Cbo-10]	27	98	92	14	2	91	19	83	35
COc1cc2nccc(Oc3ccc(NC(=O)C4(NC(=O)c5ccc(F)cc5)CC4)cc3F)c2cc1Oc1c(F)cc(N)cc1F [Cbo-14]	35	101	89	24	1	94	19	84	48
COc1cc2nccc(Oc3ccc(NC(=O)C4(C(=O)Nc5ccc(F)cc5)CC4)cc3F)c2cc1Oc1ccc(N)cc1F [Cbo-23]	52	100	55	97	4	97	13	67	51
